These results are taken from PubChem BioAssay (NCI).

Holding throughout (assay): NCI anticancer screen, dose series, 48 h
Assay [1] concerns LOX IMVI melanoma.
Assay [2] relates to K-562 leukemia.
For assay [3], the system named is OVCAR-3 ovarian.
Assay [4] relates to COLO 205 colon.
The subject of assay [5] is 786-0 renal.
Assay [6] relates to T-47D breast.
Assay [7] concerns HCT-116 colon.
Assay [8] has as its system HL-60(TB) leukemia.
The subject of assay [9] is OVCAR-5 ovarian.
Assay [10] concerns HOP-62 NSCLC.

SMILES strings stand for the structures. Values joined by “and” are separate entries in the source; they are usually repeats but may differ in a detail not shown here. Identical values can stand only once.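 All cell lines were grown in 96-well plates and treated with compound for 48 hours. At the GI50, growth is halved. TGI: total growth inhibition.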

Turning to `COc1ccc(OC)c(/C=C/c2nc(=S)n(-c3ccc(Cl)cc3)[nH]2)c1`, the GI50 is 5.02 µM in assay [1]; 4.95 µM in assay [2]; 3.34 µM in assay [3]; 12.4 µM in assay [4]; 7.17 µM in assay [5]; 4.51 µM in assay [6]. Besides, the GI50 in [7] is 4.05 µM; in [8], 3.57 µM; in [9] it was 70.3 µM; in assay [10], 6.48 µM. For the same compound, the TGI in [1] is greater than 100 µM; in assay [2] it was greater than 100 µM; in [3], 21.4 µM; in assay [4], 68.4 µM; in assay [5], greater than 100 µM; in assay [6], greater than 100 µM. Moreover, the TGI in assay [7], in assay [8], in assay [9] and in [10] was greater than 100 µM throughout.
For `Cn1nccc1Nc1nccc(-c2ccn([C@H](CO)c3ccc(Cl)c(F)c3)c(=O)c2)n1`, the GI50 in assay [1] was 3.72 µM; in assay [2], 22.5 µM; in [3], 37.5 µM; in assay [4], 0.0649 µM; in assay [5], 31.4 µM; in [6], 26.5 µM. Besides, the GI50 was 2.79 µM in assay [7], 1.89 µM in assay [8], 2.55 µM in assay [9] and 37.8 µM in [10]. Further, the TGI is 28.1 µM in [1]; greater than 100 µM in assay [2]; greater than 100 µM in assay [3]; 16.7 µM in assay [4]; greater than 100 µM in [5]; greater than 100 µM in assay [6]. For the same compound, the TGI in assay [7] was 21.1 µM; in [8], 30.4 µM; in assay [9], greater than 100 µM; in assay [10], greater than 100 µM.
Regarding `O=C(OCc1ccc2c(Br)cc(Br)c(O)c2n1)c1cc2ccccc2[nH]1`, the GI50 is 0.185 µM in assay [1]; 0.398 µM in assay [2]; 0.281 µM in [3]; 0.511 µM in [4]; 0.851 µM in assay [5]; 1.91 µM in assay [6]. Besides, the GI50 in assay [7] is 0.16 µM; in assay [8] it was 0.615 µM; in assay [9] it was 1.24 µM; in [10], 1.34 µM. Further, the TGI in assay [1] is 0.405 µM; in assay [2], greater than 40 µM; in assay [3], 0.921 µM; in assay [4], 1.84 µM; in assay [5], 2.22 µM; in [6], 5.29 µM. Further, the TGI in assay [7] is 0.368 µM; in [8], 2.94 µM; in assay [9], 2.68 µM; in assay [10], 3.47 µM.
In the case of `Cc1ccc2c(-c3ccnc(Nc4ccc5c(c4)OCCO5)n3)c(-c3ccc(C(F)(F)F)cc3)nn2n1`, the GI50 is 1.5 µM in assay [1]; 20.3 µM in assay [2]; greater than 23.6 µM in assay [3]; 3.17 µM in [4]; greater than 21.3 µM in assay [5]; 1.78 µM in [6]. Moreover, the GI50 in [7] was 7.32 µM; in [8] it was 6.81 µM; in [9], 6 µM; in [10], 24.8 µM. Moreover, the TGI in assay [1] was 6.68 µM; in [2] it was greater than 25 µM; in assay [3] it was greater than 25 µM; in [4] it was greater than 25 µM; in assay [5], greater than 25 µM; in assay [6] it was greater than 25 µM. In addition, the TGI was greater than 25 µM in assay [7], 19.4 µM in assay [8], greater than 25 µM in [9] and greater than 25 µM in assay [10].
For `Cn1c([N+](=O)[O-])cnc1C=C1C(=O)c2ccccc2C1=O`, the GI50 was 2.84 µM in [1]; 3.34 µM in assay [2]; 4.67 µM in [3]; 4.83 µM in assay [4]; 5.18 µM in assay [5]; 11.4 µM in assay [6]. For the same compound, the GI50 is 3.77 µM in [7], 2.27 µM in [8], 6 µM in assay [9] and 10.7 µM in assay [10]. Further, the TGI in assay [1] is 11.1 µM; in assay [2] it was 16.3 µM; in assay [3], 14.8 µM; in [4], 15.9 µM; in assay [5] it was 28.3 µM; in [6], 44.6 µM. Further, the TGI in assay [7] was determined as 13.1 µM; in [8], 6.08 µM; in [9], 18.7 µM; in assay [10], 29.5 µM.
With `CCNc1nc(O)c(/C=C2\C=Nc3ncccc32)s1`, the GI50 in assay [1] is 3.23 µM; in assay [2], 10 µM; in assay [3], 2.66 µM; in assay [4], 3.54 µM; in [5], 2.71 µM; in assay [6] it was 2.02 µM. Further, the GI50 in assay [7] is 2.5 µM; in assay [8], 2.53 µM; in assay [9], 2.37 µM; in assay [10], 2.27 µM. In addition, the TGI is 47.5 µM in assay [1]; greater than 100 µM in assay [2]; 8.49 µM in assay [3]; 13 µM in [4]; greater than 100 µM in assay [5]; 7.62 µM in [6]. Further, the TGI in assay [7] is greater than 100 µM; in assay [8], 10.2 µM; in [9], greater than 100 µM; in assay [10], 7.27 µM.
Consider `CN(C)CCCC1(c2ccc(F)cc2)OCc2cc(-c3cccc4[nH]ccc34)ccc21` (centres undefined), for which the GI50 in assay [1] is 1.71 µM; in assay [2] it was 1.4 µM; in assay [3], 1.79 µM; in assay [4] it was 1.47 µM; in assay [5], 1.63 µM; in assay [6] it was 1.75 µM. Besides, the GI50 is 1.37 µM in assay [7], 1.81 µM in assay [8], 1.71 µM in assay [9] and 1.5 µM in assay [10]. Further, the TGI in assay [1] was found to be 3.2 µM; in [2] it was 3.32 µM; in assay [3] it was 3.35 µM; in assay [4] it was 2.88 µM; in assay [5], 3.24 µM; in assay [6], 3.78 µM. Also, the TGI was 2.82 µM in [7], 3.59 µM in [8], 3.27 µM in assay [9] and 2.89 µM in [10].
In the case of `CC(=O)O[C@H]1C(=O)[C@@]2(C)C([C@H](OC(=O)c3ccccc3)[C@]3(O)C[C@H](OC(=O)[C@H](O)[C@@H](NC(=O)c4ccccc4)c4ccccc4)C(C)=C1C3(C)C)[C@]1(OC(C)=O)CO[C@@H]1C[C@@H]2O` (some centres undefined), the GI50 in [1] was 0.00513 µM; in assay [2], 0.00596 µM; in assay [3] it was 0.0056 µM; in assay [4], less than 0.005 µM; in [5], 0.0465 µM; in assay [6], 0.00973 µM. Moreover, the GI50 in [7] is less than 0.005 µM; in assay [8], 0.00528 µM; in assay [9] it was 0.0226 µM. Besides, the TGI is greater than 50 µM in assay [1]; greater than 50 µM in assay [2]; 0.0589 µM in assay [3]; 0.0246 µM in assay [4]; greater than 50 µM in assay [5]; greater than 50 µM in assay [6]. The TGI was greater than 50 µM in [7], 0.0209 µM in assay [8], greater than 50 µM in assay [9] and greater than 50 µM in assay [10].
As for `CNC(=O)c1ncccc1Nc1nc(Nc2cc3c(cc2OC)CCCN3C(=O)CN(C)C)nc2[nH]ccc12`, the GI50 is 1.26 µM in assay [1]; 1.88 µM in assay [2]; 0.986 µM in assay [3]; 0.127 µM in [4]; 3.23 µM in assay [5]; 3.37 µM in [6]. Besides, the GI50 in [7] is 1.11 µM; in [8] it was 0.0921 µM; in [9], 0.325 µM; in assay [10], 1.17 µM. Besides, the TGI is 4.77 µM in assay [1]; 7.55 µM in assay [2]; 3.39 µM in assay [3]; 1.18 µM in assay [4]; 7.02 µM in assay [5]; 9.19 µM in [6]. The TGI in assay [7] stood at 4.89 µM; in [8], 0.803 µM; in assay [9], 4.18 µM; in [10], 4.73 µM.
For `N#CC1(c2ccc(NC(=O)c3cccnc3NCc3ccncc3)cc2)CCCC1`, the GI50 was 14.3 µM in assay [1]; 5.79 µM in assay [2]; 14.8 µM in [3]; 7.43 µM in assay [4]; 14.5 µM in assay [5]; 4.15 µM in assay [6]. Also, the GI50 is 12.1 µM in assay [7], 11.9 µM in assay [8], 22.5 µM in [9] and 22.4 µM in [10]. Besides, the TGI is 29.2 µM in assay [1]; greater than 51 µM in assay [2]; 70 µM in assay [3]; 33.5 µM in assay [4]; 49.6 µM in assay [5]; 49.7 µM in assay [6]. Further, the TGI in [7] is 32 µM; in assay [8], 45.9 µM; in assay [9], greater than 91.8 µM; in [10], 84.9 µM.
Consider `Cc1nn(-c2ccc(Cl)cc2)c2ncnc(N/N=C/c3ccccc3O)c12`, for which the GI50 in assay [1] was 0.389 µM and 0.251 µM; in [2] it was 1.01 µM and 0.435 µM; in assay [3], 0.38 µM and 0.278 µM; in assay [4], 0.776 µM and 0.398 µM; in assay [5] it was 0.768 µM and 0.509 µM; in [6] it was 2.09 µM and 0.89 µM. The GI50 is 0.373 µM and 0.701 µM in assay [7]; 0.335 µM and 0.305 µM in [8]; 4.16 µM and 2.34 µM in assay [9]; 0.538 µM and 0.322 µM in [10]. In addition, the TGI is 11.9 µM and 10.2 µM in [1]; greater than 100 µM in [2]; 19.7 µM and 29.4 µM in [3]; > 46.2 µM and 27.6 µM in assay [4]; 7.55 µM and 5.84 µM in [5]; > 100 µM and 23.5 µM in assay [6]. In addition, the TGI was 20.7 µM and > 43.3 µM in assay [7]; 40.7 µM in assay [8]; greater than 100 µM in assay [9]; 17.1 µM and 9.11 µM in assay [10].
Consider `O=C(/C=C/C12c3ccccc3C(c3ccccc31)C1C(=O)NC(=O)C12)c1ccccn1` (centres undefined), for which the GI50 is 1.11 µM in assay [1]; 1.37 µM in assay [2]; 1.45 µM in assay [3]; 1.88 µM in assay [4]; 1.74 µM in [5]; 1.73 µM in assay [6]. The GI50 was 1.42 µM in assay [7], 1.02 µM in [8], 2.04 µM in assay [9] and 1.75 µM in assay [10]. Also, the TGI was found to be 2.51 µM in assay [1]; 18.1 µM in assay [2]; 2.88 µM in [3]; 3.62 µM in assay [4]; 4 µM in assay [5]; 5.26 µM in [6]. The TGI came to 3.14 µM in assay [7], 3.41 µM in [8], 4.54 µM in [9] and 4.15 µM in assay [10].
Regarding `O=C1C=C[C@H](O)[C@@]2(CO)O[C@@H]12`, the GI50 is 5.51 µM in assay [1]; 3.35 µM in [2]; 3.31 µM in assay [3]; 1.84 µM in [4]; 16.4 µM in assay [5]; 8.16 µM in assay [6]. Further, the GI50 in [7] is 1.79 µM; in [8], 2.65 µM; in assay [9], 15.6 µM; in assay [10], 23.7 µM. In addition, the TGI in assay [1] is 19.8 µM; in assay [2], greater than 75.5 µM; in assay [3] it was 10.7 µM; in assay [4], 3.55 µM; in assay [5], 30 µM; in assay [6], 26.3 µM. In addition, the TGI is 3.33 µM in assay [7], 8.3 µM in [8], 29 µM in assay [9] and greater than 55.2 µM in [10].
Turning to `c1ccc(-c2[nH]ncc2-c2ccnc(-c3ccc(OCCn4ccnc4)cc3)c2)nc1`, the GI50 is greater than 25 µM in assay [1]; 6.44 µM in assay [2]; 22.4 µM in [3]; greater than 25 µM in assay [4]; greater than 25 µM in assay [5]; 5.68 µM in assay [6]. Besides, the GI50 in [7], in [8], in [9] and in assay [10] was greater than 25 µM each time. Also, the TGI in assay [1], in [2], in [3], in assay [4], in [5] and in assay [6] was greater than 25 µM each time. The TGI in [7], in assay [8], in assay [9] and in [10] was greater than 25 µM throughout.
